Data on 20 compounds can be found in ChEMBL document CHEMBL6120992, “Breviane Spiroditerpenoids with Anti-inflammatory and Antiviral Activities from Deep-Sea-Derived Fungus Penicillium sp. F59” (J Nat Prod, 2025).

Experiment [1] concerns RAW264.7. Description: Antiinflammatory activity in LPS-induced mouse RAW264.7 cells assessed as inhibition of nitric oxide secretion at 20 microM incubated for 24 hrs by Griess reagent based assay relative to control. Format: functional. A general note: Griess reagent forms a coloured azo dye with nitrite.
The nature of experiment [2]: Cytotoxicity against human 293T/ACE2 cells assessed as cell viability at 100 microM incubated for 24 hrs by CellTiter assay relative to control. It is filed as functional. To be noted: read-out: Activity.
Experiment [3] relates to RAW264.7. Description: Cytotoxicity against mouse RAW264.7 cells assessed as cell viability at 20 microM incubated for 24 hrs by CCK-8 method relative to control. To be noted: read-out: Activity. It is filed as functional.
Experiment [4] has as its system SARS-CoV-2. Description: Antiviral activity against SARS-CoV-2 Omicron BA.2 pseudovirus infected in human 293T/ACE2 cells assessed as virus inhibition at 50 microM incubated for 24 hrs by firefly luciferase assay relative to control. It is filed as functional. Particulars: Severe acute respiratory syndrome coronavirus 2, Omicron BA.2, 293T/ACE2.
Experiment [5] concerns RAW264.7. Description: Antiinflammatory activity in LPS-induced mouse RAW264.7 cells assessed as inhibition of nitric oxide secretion incubated for 24 hrs by Griess reagent based assay. Format: functional, cell-based. To be noted: RAW264.7, 24 h.
Experiment [6] deals with SARS-CoV-2. The experiment in a line: Antiviral activity against SARS-CoV-2 Omicron BA.2 pseudovirus infected in human 293T/ACE2 cells assessed as virus inhibition incubated for 24 hrs by firefly luciferase assay. It is filed as functional, organism-based. To be noted: Severe acute respiratory syndrome coronavirus 2, Omicron BA.2, 293T/ACE2, 24 h.

The structures appear in SMILES notation.

For the compound `CC1=C[C@H](O)[C@@H]2[C@@]3(C)[C@H](O)C(=O)[C@H](O)C(C)(C)[C@@H]3CC[C@@]2(C)[C@]12Cc1c(c(C)c(C)oc1=O)O2`, the inhibition (in general, the relative decrease from the control value, in per cent) at 20 µM in the experiment on RAW264.7 [1] worked out at 35%. In addition, the viability at 100 µM in experiment [2] was 93%. Further, the viability at 20 µM in the experiment on RAW264.7 [3] came out at 100%. The inhibition at 50 µM with SARS-CoV-2 [4] is 11%.

With `CC1=C[C@H](O)[C@@H]2[C@@]3(C)C[C@@H](O)C(=O)C(C)(C)[C@@H]3CC[C@@]2(C)[C@]12Cc1c(c(C)c(C)oc1=O)O2`, the inhibition at 20 µM in the experiment with RAW264.7 [1] stood at 38%. In experiment [2], the viability at 100 µM is 93%. Besides, the viability at 20 µM with RAW264.7 [3] worked out at 100%. Moreover, in the experiment on SARS-CoV-2 [4], the inhibition at 50 µM stood at 0%.

`CO[C@H]1c2c(c(C)c(C)oc2=O)O[C@]12C(C)=C[C@H]1O[C@H]3CC(=O)C=C(C)[C@@H]4CC[C@]2(C)[C@H]1[C@@]34C`: in the experiment with RAW264.7 [1], the inhibition at 20 µM came to 57%. For the same compound, the viability at 100 µM in experiment [2] came to 92%. Moreover, in the experiment on RAW264.7 [3], the viability at 20 µM is 85%. For the same compound, the inhibition at 50 µM in the experiment on SARS-CoV-2 [4] is 0%.

Regarding `CC1=CC(=O)[C@@H]2[C@@]3(C)C=CC(=O)C(C)(C)[C@@H]3CC[C@@]2(C)[C@]12Cc1c(c(C)c(C)oc1=O)O2`, in the experiment with RAW264.7 [1], the inhibition at 20 µM was 87%. In addition, the IC50 – broadly, the midpoint of a concentration-inhibition curve – with RAW264.7 [5] amounted to 5.3 µM. Further, the viability at 100 µM in experiment [2] stood at 95%. For the same compound, the viability at 20 µM in the experiment on RAW264.7 [3] was 100%. In the experiment with SARS-CoV-2 [4], the inhibition at 50 µM amounted to 23%.

Take `CC(=O)/C(C)=C1\C[C@H]2O[C@@H](O)[C@]34CC[C@H]5C(C)=CC(=O)C[C@@H]6O[C@H](C=C(C)[C@@]23O1)[C@@H]4[C@@]65C`: in the experiment on RAW264.7 [1], the inhibition at 20 µM worked out at 38%. For the same compound, in experiment [2], the viability at 100 µM was determined as 90%. For the same compound, the viability at 20 µM in the experiment with RAW264.7 [3] was 100%. Further, the inhibition at 50 µM in the experiment on SARS-CoV-2 [4] was 0%.

For the compound `CC1=CC(=O)C[C@@H]2O[C@@H]3C=C(C)[C@@]45Oc6c(C)c(C)oc(=O)c6[C@@H]4OC[C@]54CC[C@@H]1[C@@]2(C)[C@@H]34`, the inhibition at 20 µM in the experiment on RAW264.7 [1] worked out at 45%. Also, in experiment [2], the viability at 100 µM was found to be 90%. Moreover, the viability at 20 µM in the experiment with RAW264.7 [3] worked out at 93%. Further, the inhibition at 50 µM in the experiment with SARS-CoV-2 [4] worked out at 16%.

For the compound `CC1=CC(=O)C=C[C@]2(C)[C@H]3CC=C(C)[C@@]45Oc6c(C)c(C)oc(=O)c6[C@@H]4O[C@@H](O)[C@@]35CC[C@@H]12`, in the experiment with RAW264.7 [1], the inhibition at 20 µM was 69%. Further, the viability at 100 µM in experiment [2] stood at 93%. Also, the viability at 20 µM with RAW264.7 [3] is 91%. For the same compound, the inhibition at 50 µM in the experiment with SARS-CoV-2 [4] was found to be 28%.

In the case of `CC1=CC(=O)C=C[C@]2(C)[C@H]3C(O)C=C(C)[C@@]4(Cc5c(c(C)c(C)oc5=O)O4)[C@]3(C)CC[C@@H]12` (stereo partly drawn), in the experiment on RAW264.7 [1], the inhibition at 20 µM came to 94%. Moreover, in the experiment on RAW264.7 [5], the IC50 stood at 9.2 µM. Besides, the viability at 100 µM in experiment [2] is 93%. In addition, the viability at 20 µM with RAW264.7 [3] was determined as 98%. In addition, in the experiment on SARS-CoV-2 [4], the inhibition at 50 µM amounted to 0%.

In the case of `CC1=CC(=O)C=C[C@]2(C)[C@H]3C(=O)C=C(C)[C@]4(Oc5c(C)c(C)oc(=O)c5[C@@H]4O)[C@]3(C)CC[C@@H]12`, the inhibition at 20 µM with RAW264.7 [1] stood at 47%. The viability at 100 µM in experiment [2] is 98%. The viability at 20 µM in the experiment with RAW264.7 [3] worked out at 91%. Besides, the inhibition at 50 µM in the experiment on SARS-CoV-2 [4] was 46%.

With `CC1=CC(=O)C=C[C@]2(C)[C@H]3[C@@H](O)[C@@H]4O[C@]4(C)[C@@]4(Cc5c(c(C)c(C)oc5=O)O4)[C@]3(C)CC[C@@H]12`, the inhibition at 20 µM with RAW264.7 [1] was 63%. Also, in experiment [2], the viability at 100 µM amounted to 99%. In the experiment on SARS-CoV-2 [6], the IC50 was found to be 10.3 µM. The viability at 20 µM in the experiment with RAW264.7 [3] turned out to be 100%. In addition, the inhibition at 50 µM with SARS-CoV-2 [4] was 69%.

Take `CC(=O)/C(C)=C1/C[C@H]2O[C@@H](O)[C@]34CC[C@H]5C(C)=CC(=O)C[C@@H]6O[C@H](C=C(C)[C@@]23O1)[C@@H]4[C@@]65C`: in the experiment with RAW264.7 [1], the inhibition at 20 µM was found to be 31%. The viability at 100 µM in experiment [2] amounted to 92%. For the same compound, in the experiment with RAW264.7 [3], the viability at 20 µM is 96%. For the same compound, in the experiment with SARS-CoV-2 [4], the inhibition at 50 µM was determined as 15%.

`CC1=CC[C@@H]2[C@@]3(C)C=CC(=O)[C@@](C)(CO)[C@@H]3CC[C@@]2(C)[C@]12Cc1c(c(C)c(C)oc1=O)O2`: the inhibition at 20 µM with RAW264.7 [1] came out at 49%. Further, the viability at 100 µM in experiment [2] is 97%. Besides, in the experiment with RAW264.7 [3], the viability at 20 µM came out at 87%. For the same compound, the inhibition at 50 µM in the experiment on SARS-CoV-2 [4] worked out at 14%.

Consider `CC(=O)O[C@@H]1O[C@@H]2C/C(=C(/C)C(C)=O)O[C@]23C(C)=C[C@H]2O[C@H]4CC(=O)C=C(C)[C@@H]5CC[C@@]13[C@H]2[C@@]45C`, for which the inhibition at 20 µM in the experiment on RAW264.7 [1] came out at 34%. The viability at 100 µM in experiment [2] amounted to 92%. Moreover, the viability at 20 µM in the experiment on RAW264.7 [3] stood at 100%. For the same compound, the inhibition at 50 µM in the experiment on SARS-CoV-2 [4] was found to be 57%.

As for `CC1=CC(=O)C[C@@H]2O[C@@H]3C=C(C)[C@]4(Oc5c(C)c(C)oc(=O)c5[C@@H]4O)[C@]4(C)CC[C@@H]1[C@@]2(C)[C@@H]34`, in the experiment with RAW264.7 [1], the inhibition at 20 µM was determined as 52%. Besides, the viability at 100 µM in experiment [2] amounted to 92%. The viability at 20 µM in the experiment with RAW264.7 [3] turned out to be 100%. In addition, the inhibition at 50 µM in the experiment on SARS-CoV-2 [4] was found to be 43%.

With `CC1=CC(=O)C[C@@H]2O[C@@H]3C=C(C)[C@@]4(Cc5c(c(C)c(C)oc5=O)O4)[C@]4(C)CC[C@@H]1[C@@]2(C)[C@@H]34`, the inhibition at 20 µM in the experiment with RAW264.7 [1] worked out at 25%. Further, in experiment [2], the viability at 100 µM was found to be 95%. In addition, in the experiment with RAW264.7 [3], the viability at 20 µM is 100%. Besides, the inhibition at 50 µM in the experiment with SARS-CoV-2 [4] was 0%.

As for `CC1=CC(=O)C[C@@H]2O[C@@H]3C=C(C)[C@@]45Oc6c(C)c(C)oc(=O)c6[C@@H]4O[C@@H](O)[C@]54CC[C@@H]1[C@@]2(C)[C@@H]34`, the inhibition at 20 µM in the experiment on RAW264.7 [1] came out at 35%. Moreover, the viability at 100 µM in experiment [2] was 99%. Also, the viability at 20 µM in the experiment with RAW264.7 [3] was 100%. Further, the inhibition at 50 µM with SARS-CoV-2 [4] came out at 0%.

Turning to `CC1=CC(=O)[C@@H]2[C@@]3(C)[C@H](O)CC(=O)C(C)(C)[C@@H]3CC[C@@]2(C)[C@]12Cc1c(c(C)c(C)oc1=O)O2`, the inhibition at 20 µM with RAW264.7 [1] stood at 45%. Further, in experiment [2], the viability at 100 µM came out at 91%. In the experiment with RAW264.7 [3], the viability at 20 µM was 99%. Besides, in the experiment with SARS-CoV-2 [4], the inhibition at 50 µM is 28%.

Regarding `CC1=CC(=O)C=C[C@]2(C)[C@H]3[C@@H]4C=C(C)[C@@]56Oc7c(C)c(C)oc(=O)c7[C@@H]5O[C@@H](O4)[C@@]36CC[C@@H]12`, the inhibition at 20 µM in the experiment with RAW264.7 [1] was 98%. For the same compound, the results for the half-inhibitory concentration (IC50) with RAW264.7 [5] and in the experiment on SARS-CoV-2 [6] were 1.4 µM and 8.5 µM, respectively. For the same compound, the viability at 100 µM in experiment [2] is 94%. For the same compound, the viability at 20 µM with RAW264.7 [3] is 93%. Besides, the inhibition at 50 µM in the experiment on SARS-CoV-2 [4] stood at 95%.

In the case of `CC(C)(C)c1ccc(S(=O)(=O)/C=C/C#N)cc1` [BAY-11-7085], the inhibition at 20 µM with RAW264.7 [1] was 77%. The IC50 with RAW264.7 [5] came out at 13.3 µM; in the experiment with SARS-CoV-2 [6], 0.74 µM. Besides, the viability at 100 µM in experiment [2] is 99%. The viability at 20 µM with RAW264.7 [3] amounted to 100%. In the experiment with SARS-CoV-2 [4], the inhibition at 50 µM turned out to be 99%.

Turning to `CC1=CC(=O)C=C[C@]2(C)[C@H]3[C@@H](O)C=C(C)[C@@]4(Cc5c(c(C)c(C)oc5=O)O4)[C@]3(C)CC[C@@H]12` [BREVIONE F], the inhibition at 20 µM with RAW264.7 [1] was 79%. Further, the IC50 with RAW264.7 [5] came out at 12.9 µM. In addition, the viability at 100 µM in experiment [2] is 97%. Moreover, the viability at 20 µM in the experiment with RAW264.7 [3] amounted to 100%. Moreover, in the experiment on SARS-CoV-2 [4], the inhibition at 50 µM was 5%.
